Seven compounds from publication PMC6199744, “Development of Chemical Proteomics for the Folateome and Analysis of the Kinetoplastid Folateome” (ACS Infectious Diseases, 2018) can be followed below.

Holding throughout (format): binding
Assay [1] addresses T1, HeLa cell extract proteins (Homo sapiens, UniProt P50990).
T1 construct: endogenous in cells; host or cells: HeLa cell extract
T1 sequence (P50990 1-548): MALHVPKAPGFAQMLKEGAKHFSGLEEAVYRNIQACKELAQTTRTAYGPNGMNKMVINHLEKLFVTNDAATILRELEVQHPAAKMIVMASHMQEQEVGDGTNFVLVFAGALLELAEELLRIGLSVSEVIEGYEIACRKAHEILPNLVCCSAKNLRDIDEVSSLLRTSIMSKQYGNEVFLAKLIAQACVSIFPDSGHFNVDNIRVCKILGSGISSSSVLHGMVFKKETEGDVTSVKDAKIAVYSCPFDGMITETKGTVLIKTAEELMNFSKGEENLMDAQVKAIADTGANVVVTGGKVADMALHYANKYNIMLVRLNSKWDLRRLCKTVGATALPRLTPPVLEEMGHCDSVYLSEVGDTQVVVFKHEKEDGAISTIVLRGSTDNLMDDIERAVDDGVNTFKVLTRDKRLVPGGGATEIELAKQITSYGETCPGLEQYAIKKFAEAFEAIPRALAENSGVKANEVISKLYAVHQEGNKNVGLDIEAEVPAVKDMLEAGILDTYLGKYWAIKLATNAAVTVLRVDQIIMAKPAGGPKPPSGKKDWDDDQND

The target in assay [2] is T2, HeLa cell extract proteins (Homo sapiens, UniProt P28074).
T2 construct: endogenous in cells; host or cells: HeLa cell extract
T2 sequence (P28074 60-263): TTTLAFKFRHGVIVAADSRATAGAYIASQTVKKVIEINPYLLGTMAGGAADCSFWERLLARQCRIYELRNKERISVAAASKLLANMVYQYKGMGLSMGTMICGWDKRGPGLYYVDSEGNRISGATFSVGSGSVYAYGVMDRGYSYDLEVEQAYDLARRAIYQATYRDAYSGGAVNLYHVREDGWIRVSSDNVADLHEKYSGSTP

Assay [3] concerns the target T3, HeLa cell extract proteins (Homo sapiens, UniProt Q15437).
T3 construct: endogenous in cells; host or cells: HeLa cell extract

Assay [4] concerns the target T4, HeLa cell extract proteins (Homo sapiens, UniProt Q8IXB1).
T4 construct: endogenous in cells; host or cells: HeLa cell extract
T4 sequence (Q8IXB1 33-793): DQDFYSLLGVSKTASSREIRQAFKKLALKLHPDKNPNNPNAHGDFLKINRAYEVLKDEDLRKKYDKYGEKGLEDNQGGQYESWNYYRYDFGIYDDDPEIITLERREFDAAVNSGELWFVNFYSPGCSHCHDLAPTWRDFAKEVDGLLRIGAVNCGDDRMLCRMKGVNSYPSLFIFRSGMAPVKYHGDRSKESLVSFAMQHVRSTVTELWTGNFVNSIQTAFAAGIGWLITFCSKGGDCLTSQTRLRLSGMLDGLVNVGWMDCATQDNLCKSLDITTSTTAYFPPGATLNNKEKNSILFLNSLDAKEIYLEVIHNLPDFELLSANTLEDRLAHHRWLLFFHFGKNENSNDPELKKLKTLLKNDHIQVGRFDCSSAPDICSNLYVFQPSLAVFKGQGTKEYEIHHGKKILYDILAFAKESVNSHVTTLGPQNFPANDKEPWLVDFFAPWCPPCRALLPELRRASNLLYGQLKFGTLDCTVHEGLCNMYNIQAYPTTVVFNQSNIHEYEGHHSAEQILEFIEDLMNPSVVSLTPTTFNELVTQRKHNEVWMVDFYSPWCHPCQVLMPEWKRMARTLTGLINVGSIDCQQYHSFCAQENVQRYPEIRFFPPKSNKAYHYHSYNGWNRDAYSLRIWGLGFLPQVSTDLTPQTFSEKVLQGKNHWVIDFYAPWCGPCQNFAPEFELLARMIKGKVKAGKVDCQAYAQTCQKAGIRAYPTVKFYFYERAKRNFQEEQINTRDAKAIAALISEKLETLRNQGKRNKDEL

The target of assay [5] is T5, HeLa cell extract proteins (Homo sapiens, UniProt P23528).
T5 construct: endogenous in cells; host or cells: HeLa cell extract
T5 sequence (P23528 whole entry): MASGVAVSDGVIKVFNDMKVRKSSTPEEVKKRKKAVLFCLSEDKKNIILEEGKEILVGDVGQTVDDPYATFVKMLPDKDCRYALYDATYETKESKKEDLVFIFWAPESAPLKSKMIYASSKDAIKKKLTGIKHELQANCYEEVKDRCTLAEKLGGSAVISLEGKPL

Assay [6] addresses T6, HeLa cell extract proteins (Homo sapiens, UniProt Q9H0U4).
T6 construct: endogenous in cells; host or cells: HeLa cell extract

For assay [7], the target named is T7, HeLa cell extract proteins (Homo sapiens, UniProt Q9H773).
T7 construct: endogenous in cells; host or cells: HeLa cell extract
T7 sequence (Q9H773 1-170): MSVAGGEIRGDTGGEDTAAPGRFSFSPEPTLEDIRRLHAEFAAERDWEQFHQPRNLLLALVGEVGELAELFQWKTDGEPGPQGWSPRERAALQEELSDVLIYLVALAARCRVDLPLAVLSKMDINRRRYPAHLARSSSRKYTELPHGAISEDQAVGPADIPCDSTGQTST

Assay [8] concerns the target T8, HeLa cell extract proteins (Homo sapiens, UniProt P08758).
T8 construct: endogenous in cells; host or cells: HeLa cell extract
T8 sequence (P08758 1-320): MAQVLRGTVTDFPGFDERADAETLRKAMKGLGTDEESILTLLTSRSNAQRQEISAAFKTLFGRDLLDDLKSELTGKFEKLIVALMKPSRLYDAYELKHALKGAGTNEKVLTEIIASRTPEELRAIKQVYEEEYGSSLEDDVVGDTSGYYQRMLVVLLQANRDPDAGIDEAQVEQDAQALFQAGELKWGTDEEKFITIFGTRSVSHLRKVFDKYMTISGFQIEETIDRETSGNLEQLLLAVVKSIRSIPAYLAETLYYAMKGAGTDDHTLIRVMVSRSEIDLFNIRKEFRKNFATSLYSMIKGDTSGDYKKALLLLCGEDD

For assay [9], the target named is T9, HeLa cell extract proteins (Homo sapiens, UniProt P11177).
T9 construct: endogenous in cells; host or cells: HeLa cell extract
T9 sequence (P11177 31-359): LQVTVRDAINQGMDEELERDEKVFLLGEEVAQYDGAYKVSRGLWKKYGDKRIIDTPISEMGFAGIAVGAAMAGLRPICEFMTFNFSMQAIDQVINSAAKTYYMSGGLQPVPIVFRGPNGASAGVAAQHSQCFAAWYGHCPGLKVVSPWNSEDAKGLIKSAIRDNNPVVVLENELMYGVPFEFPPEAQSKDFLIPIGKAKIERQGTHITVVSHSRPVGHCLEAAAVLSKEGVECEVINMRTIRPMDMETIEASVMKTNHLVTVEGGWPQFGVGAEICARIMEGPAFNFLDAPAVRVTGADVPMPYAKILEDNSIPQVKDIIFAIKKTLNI

Where [10] appears, read: HeLa, protein CFL1 (COFILIN-1.).
The mark [11] stands for this setting: HeLa, protein ANXA5 (ANNEXIN A5.).
Where [12] appears, read: HeLa, protein PDHB (ISOFORM 1 OF PYRUVATE DEHYDROGENASE E1 COMPONENT SUBUNIT BETA, MITOCHONDRIAL PRECURSOR).
The mark [13] stands for this setting: HeLa, protein XTP3TPA (XTP3-TRAN[…] A PROTEIN).

The structures appear in SMILES notation. Like-named read-outs stand apart in the source and are kept apart here.

T3 sequence (Q15437 whole entry): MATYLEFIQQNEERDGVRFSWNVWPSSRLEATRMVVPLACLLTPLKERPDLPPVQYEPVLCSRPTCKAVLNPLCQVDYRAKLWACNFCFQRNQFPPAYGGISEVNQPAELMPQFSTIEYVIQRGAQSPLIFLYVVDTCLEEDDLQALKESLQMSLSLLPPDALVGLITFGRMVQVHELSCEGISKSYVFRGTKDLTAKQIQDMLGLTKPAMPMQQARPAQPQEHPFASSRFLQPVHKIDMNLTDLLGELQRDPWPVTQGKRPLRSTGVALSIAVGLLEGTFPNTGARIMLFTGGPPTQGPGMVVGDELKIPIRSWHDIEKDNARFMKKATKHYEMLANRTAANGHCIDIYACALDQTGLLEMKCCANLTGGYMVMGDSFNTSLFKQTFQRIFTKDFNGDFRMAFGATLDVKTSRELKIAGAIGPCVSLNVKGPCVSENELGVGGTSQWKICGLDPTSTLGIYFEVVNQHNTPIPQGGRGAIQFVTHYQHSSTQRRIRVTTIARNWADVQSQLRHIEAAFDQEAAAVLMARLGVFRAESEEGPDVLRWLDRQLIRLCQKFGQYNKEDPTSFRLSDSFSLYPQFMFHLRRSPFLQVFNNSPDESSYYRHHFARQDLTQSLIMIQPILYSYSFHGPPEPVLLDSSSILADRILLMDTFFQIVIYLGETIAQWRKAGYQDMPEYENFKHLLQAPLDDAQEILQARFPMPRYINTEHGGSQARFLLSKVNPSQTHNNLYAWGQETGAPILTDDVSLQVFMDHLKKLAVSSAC
T6 sequence (Q9H0U4 whole entry): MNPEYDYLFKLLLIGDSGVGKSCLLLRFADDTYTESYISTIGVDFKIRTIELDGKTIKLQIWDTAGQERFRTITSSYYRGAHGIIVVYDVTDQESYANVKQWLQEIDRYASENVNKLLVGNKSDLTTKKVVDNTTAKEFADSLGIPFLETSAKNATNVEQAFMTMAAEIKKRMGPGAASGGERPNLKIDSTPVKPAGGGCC

As for `CCCCCCOc1cccc(Cc2cnc(N)nc2N)c1` [compound 2], the “fold changes relative to vehicle control” value in assay [1] (protein CCT8, HeLa) came to 1.92; in assay [2] (protein PSMB5, HeLa), 1.24; in assay [3] (HeLa, protein SEC23B) it was 0.93; in [4] (HeLa, protein DNAJC10), 0.85; in assay [5] (setting [10]) it was 2.02 fold; in assay [6] (protein RAB1B, HeLa), 1.41. In addition, the “fold changes relative to vehicle control” value came to 0.73 in assay [7] (captured protein XTP3TPA, HeLa); 2.23 fold in assay [8] (setting [11]); 0.38 in [9] (protein PDHB, HeLa).
For the compound `NCCOCCOCC(=O)Nc1nc2ncc(CNc3ccc(C(=O)NC(CCC(=O)O)C(=O)O)cc3)nc2c(=O)[nH]1` (stereo not drawn) [compound 6], the “fold changes relative to vehicle control” value is listed as 1.15 in assay [1] (HeLa, protein CCT8); 1.05 in [2] (HeLa, protein PSMB5); 0.88 in assay [3] (HeLa, protein SEC23B); 0.89 in assay [4] (HeLa, protein DNAJC10); 0.89 in assay [5] (protein CFL1, HeLa); 0.98 in [6] (HeLa, protein RAB1B). In addition, the “fold changes relative to vehicle control” value in [7] (HeLa, protein XTP3TPA (XTP3-TRANSACTIVATED GENE A PROTEIN)) came to 0.51; in assay [8] (HeLa, protein ANXA5), 1.26; in assay [9] (setting [12]) it was 0.87.
As to `CCCCCCOc1ccc(Cc2cnc(N)nc2N)cc1` [compound 1], the “fold changes relative to vehicle control” value in assay [1] (protein CCT8, HeLa) amounted to 1.16; in assay [2] (protein PSMB5, HeLa), 1.11; in [3] (HeLa, protein SEC23B) it was 1.01; in assay [4] (HeLa, protein DNAJC10), 0.89; in assay [5] (setting [10]) it was 1.27 fold; in [6] (protein RAB1B, HeLa), 1.14. Besides, the “fold changes relative to vehicle control” value was 0.91 in [7] (captured protein XTP3TPA, HeLa); 1.33 fold in [8] (setting [11]); 0.97 in assay [9] (protein PDHB, HeLa).
On to `Nc1nc2c(c(=O)[nH]1)N(C=O)C(CNc1ccc(C(=O)N[C@@H](CCC(=O)O)C(=O)O)cc1)CN2` (stereo partly drawn) [LEU, leucovorin], for which the “fold changes relative to vehicle control” value in [1] (HeLa, protein CCT8) is 0.99; in assay [2] (HeLa, protein PSMB5), 0.97; in assay [3] (HeLa, protein SEC23B) it was 0.98; in assay [4] (HeLa, protein DNAJC10), 0.89; in assay [5] (protein CFL1, HeLa), 0.76; in assay [6] (HeLa, protein RAB1B), 0.93. Also, the “fold changes relative to vehicle control” value is reported as 1.14 in assay [7] (setting [13]); 0.99 in assay [8] (HeLa, protein ANXA5); 1.01 in [9] (HeLa, protein PDHB (ISOFORM 1 OF PYRUVATE DEHYDROGENASE E1 COMPONENT SUBUNIT BETA, MIT[…])).
As to `NCCCNc1ccc(C(=O)NC(CCC(=O)O)C(=O)O)cc1` (stereo not drawn) [compound 7], the “fold changes relative to vehicle control” value in assay [1] (HeLa, protein CCT8) was determined as 0.92; in [2] (HeLa, protein PSMB5) it was 1; in assay [3] (HeLa, protein SEC23B), 1.09; in assay [4] (HeLa, protein DNAJC10), 0.94; in assay [5] (protein CFL1, HeLa), 0.69; in [6] (HeLa, protein RAB1B), 0.91. For the same compound, the “fold changes relative to vehicle control” value in assay [7] (setting [13]) turned out to be 1.21; in assay [8] (HeLa, protein ANXA5), 0.9; in assay [9] (setting [12]), 0.92.
In the case of `Nc1nc2[nH]cc(CCc3ccc(C(=O)N[C@@H](CCC(=O)O)C(=O)O)cc3)c2c(=O)[nH]1` [PTX, pemetrexed], the “fold changes relative to vehicle control” value in [1] stood at 1.02; in assay [2], 1; in assay [3], 0.91; in assay [4], 0.91; in [5], 0.79; in [6], 0.93. The “fold changes relative to vehicle control” value in assay [7] was determined as 1.09; in assay [8] it was 0.97; in assay [9], 0.92.
In the case of `Nc1nc2cccc(-c3ccccc3)c2n1Cc1ccc(Cl)c(Cl)c1` [compound 3], the “fold changes relative to vehicle control” value worked out at 0.96 in assay [1] (protein CCT8, HeLa); 0.95 in [2] (protein PSMB5, HeLa); 1.04 in [3] (HeLa, protein SEC23B); 1.04 in assay [4] (HeLa, protein DNAJC10); 0.82 fold in assay [5] (setting [10]); 1.09 in assay [6] (protein RAB1B, HeLa). Further, the “fold changes relative to vehicle control” value in assay [7] (captured protein XTP3TPA, HeLa) came out at 1.14; in assay [8] (setting [11]) it was 0.91 fold; in assay [9] (protein PDHB, HeLa) it was 0.99.
